The results in this text go back to patent publication US10897906B2, “Fungicide for the treatment of fungal pathogens causing mycotoxins” (priority 2015, dated 2021).

Data set [1] can be described thus: Surface tension of aqueous bicarbonate spray solution (Kruss DSA30). Format: physicochemical. Conditions: aqueous solutions at typical in-use concentrations (2-5% active ingredient). The method, then:
(§1) In this application surface tension and contact angle were measured using a Kruss DSA30 system, […] was measured using a pendant drop technique with analysis carried out after application of the Laplace-Young equation, […] was measured following application of a droplet on to an artificial hydrophobic (Para-film) surface. The particle sizes of the crystals of the bicarbonate salt were determined by microscopy following the application of Motic Advanced Imaging Software.

Data set [2] is described as follows: Contact angle of aqueous bicarbonate spray solution (Kruss DSA30, hydrophobic Para-film surface). Type of data set: physicochemical. The settings on record: aqueous solutions at typical in-use concentrations (2-5% active ingredient). The method, then: as §1

In the case of `O=C([O-])O.[K+]` [potassium bicarbonate], the “Surface tension compared with water” value in data set [1] is listed as “virtually identical to that achieved with water alone”. Also, in data set [2], the “Contact angle with the plant tissues compared with water” value was “virtually identical to that achieved with water alone”.
